According to patent US20190350955A1, “METHODS AND PHARMACEUTICAL COMPOSITIONS FOR THE TREATMENT OF CARDIOMYOPATHIES” (INSERM (Institut National de la Sante et de la Recherche …, priority 2016, published 2019):

Legend:
SRF^HKO mice = assay: RT-qPCR gene expression in SRF HKO heart; assay type: in vivo, mouse
Text: Transgenic mice. All experiments with animals conformed to the Directive 2010/63/EU of the European Parliament and were approved by the ethics committee Charles Darvin #5 (agreement 00369.01). SRF^HKO mice bear the tamoxifen-inducible α-MHC-MerCrMer transgene and the Siffloxed allele (Sf/Sf) as described previously (Parlakian et al. (2005). Temporally controlled onset of dilated cardiomyopathy through disruption of the SRF gene in adult heart. Journal 112, 2930-2939; Tritsch et al. (2013). An SRF/miR-1 axis regulates NCX1 and Annexin A5 protein levels in the normal and failing heart. Journal 98, 372-380). Transgenic mice have been bred for more than 20 generations in C57BL/6N background. The mice were housed in standard animal facility (CEF. Hôpital Pitié Salpétrière, agreement A-75-13-15, 75013 Paris), under a 12-h dark/light cycle. Tamoxifen (Sigma T5648) was administrated by i.p. injection at a dose of 0.7 mg diluted in 100 μl peanut oil at day (D) 0, D1 and D2. (Sf/Sf) littermates injected with tamoxifen at the same time than mutant were used as controls.
Nicotinamide and nicotinamide riboside i.p. administration. Nicotinamide was diluted in saline at 300 mM. Nicotinamide riboside (NR) bromide salt stock solution (1M) was in 10 mM citric acid pH 6.0. For injection 3 volumes of NR stock solution was mixed extemporaneously with 7 volumes of PBS to obtain a 300 mM injectable solution at pH 7.2. Mice were injected daily at a dose of 1 μmole/g body weight.
SRF^HKO and control (Sf/Sf) mice were administered either rodent maintenance SAFE A04 diet containing 3.10% crude fat. 16.10% crude proteins. 26% starch and 1.9% sugar (Scientific Animal Food Engineering, Paris, France) or SAFE # A04 diet supplemented with NR. NR was provided by Chromadex under brand name NIAGEN (Irvine Calif. USA). The soft pellets were manually prepared every 5 days by mixing 1.65 g of NR into 500 g of powdered SAFE A04 diet and 235 ml of water to reach 2.24 mg of NR/g (wet weight). Control diet was prepared in the same way omitting NR. Mice had ad libitum access to food and water. Mice (average body weight 31.3±0.82 g, no difference between groups) consumed an average of 6 g of soft food per day, reaching a daily intake of 450 mg NR/kg. No difference in food intake was observed between SRF^HKO and control mice.
cDNAs were reverse transcribed from RNA (1.5 μg) extracted in TRIzol (Thermofisher) from cell cultures and tissues using the Superscript II Reverse Transcriptase (Life Technologies). Quantitative PCR was carried out on a Light Cycler 480 (Roche Diagnostics) using Fast Start SYBR Green Master (Roche Diagnostics). Quantification of gene expression was calculated as R=2^ΔCt(Ref Cp−target Cp), with Hprt used as a as reference. Primers were designed using the NCBI Primer-BLAST software. Primer sequences are available on request.

TAC mice = assay: Echocardiography after transverse aorta constriction (TAC); assay type: in vivo, mouse; conditions: NR enriched diet 400 mg/kg/day vs untreated TAC group
Protocol: Transverse aorta constriction was performed in 2 month-old male mice under anesthesia (ketamine 100 mg/kg, xylazin 16 mg/kg). Skin was opened above the sternum and the upper part of the sternum was cut on a length of 2 mm allowing the mouse to breath without the need of a ventilator. A surgical suture was passed under the aortic cross between the right brachiocephalic (innominate) artery and left common carotid artery and a 27-½ gauge blunt needle was placed parallel to the wall of the aortic cross as a calibrator. Two loose knots were tied around the aortic cross and the needle. […]
Echocardiography was performed on lightly anesthetized mice given isoflurane (induction with 2% isoflurane 100% O2. and maintained with 0.5% isoflurance 100% O2). Non-invasive measurements of left ventricular dimensions were evaluated using Doppler echocardiography (Vivid 7 Dimension/Vivid7 PRO; GE Medical Systems) with a probe ultrasound frequency range of 9-14 MHz. […] LV fractional shortening (FS) was calculated using the formula: (LVEDD−LVESD)/LVEDD×100. LV myocardial volume (LVV), LV end-diastolic volume (EDV), and end-systolic volume (ESV) were calculated using a half-ellipsoid model of the LV. From these volumes, LV ejection fraction (EF) was calculated using, the formula: (EDV−ESV)/EDV×100. H/R ratio was calculated by the formula (PWThd+IVSThd)/LVEDd.

NC(=O)c1ccc[n+]([C@@H]2O[C@H](CO)[C@@H](O)[C@H]2O)c1 [NR, nicotinamide riboside]
expression level of the NADPH oxidase gene Nox4 (SRF^HKO mice; NR diet, heart of SRF HKO mice): increased
expression level of the Nfel2 gene encoding NRF2 and its target gene metallothionein 2 (SRF^HKO mice; NR diet, heart of SRF HKO mice): increased
expression level of G6pdx (SRF^HKO mice; SRF HKO mice under the NR diet): maintained at higher level than in controls
Srf and Nmrk2 expression levels (SRF^HKO mice; i.p. administration from D8 to D15): not changed
drop in LVEF triggered by TAC (TAC mice): limits
thickening of the interventricular septum (IVSTh) triggered by TAC (TAC mice): limits
